Data taken from ChEMBL document CHEMBL1201861, “Genomics of Drug Sensitity in Cancer screening data, Wellcome Trust Sanger Institute”.
Counter-ions that a name gives are not always drawn.

Experiments:
Experiment in all cases: cells
Type in all cases: functional, cell-based, Homo sapiens
ECC10 = details: Homo sapiens, ECC10;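 note: growth inhibition of ECC10 cells, read out by a cell viability assay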
Description: SANGER: Inhibition of human ECC10 cell growth in a cell viability assay.

EFO-27 = system: EFO-27;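 note: growth inhibition of EFO-27 cells, read out with a cell viability assay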
Description: SANGER: Inhibition of human EFO-27 cell growth in a cell viability assay.

EPLC-272H = details: Homo sapiens, EPLC-272H
Description: SANGER: Inhibition of human EPLC-272H cell growth in a cell viability assay.

HuO-3N1 = system: HuO-3N1;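 note: cell viability readout used to measure how strongly compounds suppress proliferation of human HuO-3N1 cells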
Description: SANGER: Inhibition of human HuO-3N1 cell growth in a cell viability assay.

LCLC-103H cell line = system: LCLC-103H cell line
Description: SANGER: Inhibition of human LCLC-103H cell growth in a cell viability assay.

MDA-MB-415 = system: MDA-MB-415
MKN-45 = system: MKN-45;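 note: growth inhibition of human MKN-45 cells, measured with a cell viability assay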
Description: SANGER: Inhibition of human MKN45 cell growth in a cell viability assay.

NBsusSR = details: Homo sapiens, NBsusSR;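 note: growth inhibition of the human cell line, read out with a cell viability assay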
Description: SANGER: Inhibition of human NBsusSR cell growth in a cell viability assay.

NCI-H1048 = details: Homo sapiens, NCI-H1048;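 note: growth inhibition of human NCI-H1048 cells, read out with a cell viability assay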
Description: SANGER: Inhibition of human NCI-H1048 cell growth in a cell viability assay.

NCI-H1975 = details: Homo sapiens, NCI-H1975
Description: SANGER: Inhibition of human NCI-H1975 cell growth in a cell viability assay.

NCI-H292 = system: NCI-H292;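 note: growth inhibition of NCI-H292 cells, read out with a cell viability assay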
Description: SANGER: Inhibition of human NCI-H292 cell growth in a cell viability assay.

OAW-28 = system: OAW-28;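 note: growth inhibition of OAW-28 cells, read out with a cell viability assay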
Description: SANGER: Inhibition of human OAW-28 cell growth in a cell viability assay.

OVCAR-3 = system: OVCAR-3;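 note: growth inhibition of human OVCAR-3 cells, determined by a cell viability assay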
Description: SANGER: Inhibition of human OVCAR-3 cell growth in a cell viability assay.

OVCAR-8 = system: OVCAR-8;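 note: growth inhibition of human OVCAR-8 cells, read out by a cell viability assay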
Description: SANGER: Inhibition of human OVCAR-8 cell growth in a cell viability assay.

SK-LU-1 = system: SK-LU-1;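 note: cell viability assay measuring growth inhibition of human SK-LU-1 cells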
Description: SANGER: Inhibition of human SK-LU-1 cell growth in a cell viability assay.

SW900 = details: Homo sapiens, SW900;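 note: IC50 is the concentration that inhibits SW900 cell growth, measured by a cell viability assay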
Description: SANGER: Inhibition of human SW900 cell growth in a cell viability assay.

639-V = system: 639-V;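 note: growth inhibition of 639-V cells, read out with a cell viability assay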
Description: SANGER: Inhibition of human 639-V cell growth in a cell viability assay.

647-V = system: 647-V;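 note: growth inhibition of 647-V cells, read out with a cell viability assay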
Description: SANGER: Inhibition of human 647-V cell growth in a cell viability assay.

BALL-1 = details: Homo sapiens, BALL-1;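 note: growth inhibition of BALL-1 cells, read out with a cell viability assay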
Description: SANGER: Inhibition of human BALL-1 cell growth in a cell viability assay.

BFTC-905 = system: BFTC-905
Description: SANGER: Inhibition of human BFTC-905 cell growth in a cell viability assay.

CAL-27 = system: CAL-27;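 note: Viability-based readout, IC50 reflecting inhibition of CAL-27 cell growth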
Description: SANGER: Inhibition of human CAL-27 cell growth in a cell viability assay.

TGBC11TKB = details: Homo sapiens, TGBC11TKB;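 note: growth inhibition of human TGBC11TKB cells, measured by a cell viability assay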
Description: SANGER: Inhibition of human TGBC11TKB cell growth in a cell viability assay.

TI-73 = details: Homo sapiens, TI-73;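 note: cell viability assay measuring how much compounds suppress growth of the cultured cell line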
Description: SANGER: Inhibition of human TI-73 cell growth in a cell viability assay.

DV-90 = system: DV-90;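 note: Read-out is a viability assay, with IC50 reflecting the drop in DV-90 cell growth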
Description: SANGER: Inhibition of human DV-90 cell growth in a cell viability assay.

EFE-184 = system: EFE-184
Description: SANGER: Inhibition of human EFE-184 cell growth in a cell viability assay.

HCC1143 = system: HCC1143;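 note: growth inhibition of human HCC1143 cells, read out with a cell viability assay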
Description: SANGER: Inhibition of human HCC1143 cell growth in a cell viability assay.

HCC1954 = system: HCC1954;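 note: growth inhibition of human HCC1954 cells, read out with a cell viability assay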
Description: SANGER: Inhibition of human HCC1954 cell growth in a cell viability assay.

IGR-1 = system: IGR-1;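 note: growth inhibition of human IGR-1 cells, read out with a cell viability assay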
Description: SANGER: Inhibition of human IGR-1 cell growth in a cell viability assay.

KARPAS-422 = system: KARPAS-422
Description: SANGER: Inhibition of human KARPAS-422 cell growth in a cell viability assay.

MES-SA = system: MES-SA;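 note: growth inhibition of human MES-SA cells, read out with a cell viability assay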
Description: SANGER: Inhibition of human MES-SA cell growth in a cell viability assay.

NCI-H1734 = system: NCI-H1734;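 note: growth inhibition of human NCI-H1734 cells, read out with a cell viability assay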
Description: SANGER: Inhibition of human NCI-H1734 cell growth in a cell viability assay.

NCI-H2052 = system: NCI-H2052;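 note: growth inhibition of NCI-H2052 cells, read out with a cell viability assay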
Description: SANGER: Inhibition of human NCI-H2052 cell growth in a cell viability assay.

NCI-H838 = system: NCI-H838;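 note: growth inhibition of human NCI-H838 cells, read out by a cell viability assay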
Description: SANGER: Inhibition of human NCI-H838 cell growth in a cell viability assay.

REH = system: REH;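 note: growth inhibition of REH cells determined with a cell viability read-out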
Description: SANGER: Inhibition of human REH cell growth in a cell viability assay.

SIMA = system: SIMA;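 note: growth inhibition of SIMA cells, measured with a cell viability readout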
Description: SANGER: Inhibition of human SIMA cell growth in a cell viability assay.

SK-CO-1 = system: SK-CO-1;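 note: growth inhibition of SK-CO-1 cells, determined by a viability readout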
Description: SANGER: Inhibition of human SK-CO-1 cell growth in a cell viability assay.

8305C = system: 8305C
Description: SANGER: Inhibition of human 8305C cell growth in a cell viability assay.

BPH-1 = system: BPH-1;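 note: cell viability assay measuring growth inhibition of human BPH-1 cells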
Description: SANGER: Inhibition of human BPH-1 cell growth in a cell viability assay.

CA46 = system: CA46;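 note: growth inhibition of human CA46 cells, read out by a cell viability assay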
Description: SANGER: Inhibition of human CA46 cell growth in a cell viability assay.

CAL-12T = system: CAL-12T;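 note: growth inhibition of human CAL-12T cells, read out with a cell viability assay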
Description: SANGER: Inhibition of human CAL-12T cell growth in a cell viability assay.

CAL-51 = system: CAL-51;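 note: human CAL-51 cell line, growth inhibition read out via a cell viability assay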
Description: SANGER: Inhibition of human CAL-51 cell growth in a cell viability assay.

VM-CUB-1 = system: VM-CUB-1;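 note: cell viability assay measuring growth inhibition of the human VM-CUB-1 cell line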
Description: SANGER: Inhibition of human VM-CUB-1 cell growth in a cell viability assay.

COLO 205 = system: COLO 205
Description: SANGER: Inhibition of human COLO-205 cell growth in a cell viability assay.

COLO-680N = system: COLO-680N;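 note: cell viability assay used to measure inhibition of COLO-680N cell growth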
Description: SANGER: Inhibition of human COLO-680N cell growth in a cell viability assay.

LU-135 = details: Homo sapiens, LU-135
Description: SANGER: Inhibition of human LU-135 cell growth in a cell viability assay.

NCI-H1666 = details: Homo sapiens, NCI-H1666;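 note: growth inhibition of the cell line, read out with a cell viability assay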
Description: SANGER: Inhibition of human NCI-H1666 cell growth in a cell viability assay.

RH-18 = details: Homo sapiens, Rh18;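 note: growth inhibition of human RH-18 cells, read out with a cell viability assay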
Description: SANGER: Inhibition of human RH-18 cell growth in a cell viability assay.

Compound: CN(C)C(=N)NC(=N)N [METFORMIN]
- IC50 (ECC10): 2280 µM
- IC50 (EFO-27; Homo sapiens, EFO-27): > 20000 µM
- IC50 (EPLC-272H): > 20000 µM
- IC50 (HuO-3N1; Homo sapiens, HuO-3N1): 7800 µM
- IC50 (LCLC-103H cell line; Homo sapiens, LCLC-103H): > 20000 µM
- IC50 (MDA-MB-415; Homo sapiens, MDA-MB-415): 16800 µM
- IC50 (MKN-45; Homo sapiens, MKN-45): > 20000 µM
- IC50 (NBsusSR): 9190 µM
- IC50 (NCI-H1048): > 20000 µM
- IC50 (NCI-H1975): 11700 µM
- IC50 (NCI-H292; Homo sapiens, NCI-H292): 5870 µM
- IC50 (OAW-28; Homo sapiens, OAW-28): > 20000 µM
- IC50 (OVCAR-3; Homo sapiens, OVCAR-3): 17600 µM
- IC50 (OVCAR-8; Homo sapiens, OVCAR-8): > 20000 µM
- IC50 (SK-LU-1; Homo sapiens, SK-LU-1): > 20000 µM
- IC50 (SW900): 19300 µM
- IC50 (639-V; Homo sapiens, 639-V): > 20000 µM
- IC50 (647-V; Homo sapiens, 647-V): > 20000 µM
- IC50 (BALL-1): > 20000 µM
- IC50 (BFTC-905; Homo sapiens, BFTC-905): 11700 µM
- IC50 (CAL-27; Homo sapiens, CAL-27): > 20000 µM
- IC50 (TGBC11TKB): > 20000 µM
- IC50 (TI-73): 13600 µM

Compound: COC1=CC(c2cc3ccccc3[nH]2)=N/C1=C\c1[nH]c(C)cc1C [OBATOCLAX MESYLATE]
- IC50 (DV-90; Homo sapiens, DV-90): 1.76 µM
- IC50 (EFE-184; Homo sapiens, EFE-184): 7.32 µM
- IC50 (EFO-27; Homo sapiens, EFO-27): 0.34 µM
- IC50 (HCC1143; Homo sapiens, HCC1143): 0.174 µM
- IC50 (HCC1954; Homo sapiens, HCC1954): 5.86 µM
- IC50 (HuO-3N1; Homo sapiens, HuO-3N1): 0.401 µM
- IC50 (IGR-1; Homo sapiens, IGR-1): < 0.0625 µM
- IC50 (KARPAS-422; Homo sapiens, KARPAS-422): 0.166 µM
- IC50 (LCLC-103H cell line; Homo sapiens, LCLC-103H): 0.185 µM
- IC50 (MDA-MB-415; Homo sapiens, MDA-MB-415): 2.18 µM
- IC50 (MES-SA; Homo sapiens, MES-SA): 0.405 µM
- IC50 (MKN-45; Homo sapiens, MKN-45): 1.99 µM
- IC50 (NCI-H1734; Homo sapiens, NCI-H1734): 0.42 µM
- IC50 (NCI-H2052; Homo sapiens, NCI-H2052): 0.567 µM
- IC50 (NCI-H292; Homo sapiens, NCI-H292): 0.176 µM
- IC50 (NCI-H838; Homo sapiens, NCI-H838): 0.528 µM
- IC50 (OAW-28; Homo sapiens, OAW-28): 0.202 µM
- IC50 (OVCAR-3; Homo sapiens, OVCAR-3): 0.516 µM
- IC50 (OVCAR-8; Homo sapiens, OVCAR-8): 0.0311 µM
- IC50 (REH; Homo sapiens, REH): 0.0464 µM
- IC50 (SIMA; Homo sapiens, SIMA): 0.494 µM
- IC50 (SK-CO-1; Homo sapiens, SK-CO-1): 2.62 µM
- IC50 (SK-LU-1; Homo sapiens, SK-LU-1): 0.134 µM
- IC50 (639-V; Homo sapiens, 639-V): 0.156 µM
- IC50 (647-V; Homo sapiens, 647-V): 0.104 µM
- IC50 (8305C; Homo sapiens, 8305C): 0.18 µM
- IC50 (BFTC-905; Homo sapiens, BFTC-905): 0.0791 µM
- IC50 (BPH-1; Homo sapiens, BPH-1): 0.563 µM
- IC50 (CA46; Homo sapiens, CA46): 0.0654 µM
- IC50 (CAL-12T; Homo sapiens, CAL-12T): < 0.0625 µM
- IC50 (CAL-27; Homo sapiens, CAL-27): 0.0646 µM
- IC50 (CAL-51; Homo sapiens, CAL-51): 40 nM
- IC50 (VM-CUB-1; Homo sapiens, VM-CUB-1): 0.713 µM
- IC50 (COLO 205; Homo sapiens, COLO 205): 0.0572 µM
- IC50 (COLO-680N; Homo sapiens, COLO-680N): 0.0505 µM

Compound: CS(=O)(=O)c1ccc(C(=O)Nc2ccc(Cl)c(-c3ccccn3)c2)c(Cl)c1 [VISMODEGIB]
- IC50 (EFO-27; Homo sapiens, EFO-27): > 10 µM
- IC50 (EPLC-272H): > 10 µM
- IC50 (HCC1954; Homo sapiens, HCC1954): > 10 µM
- IC50 (HuO-3N1; Homo sapiens, HuO-3N1): 9.6 µM
- IC50 (IGR-1; Homo sapiens, IGR-1): > 10 µM
- IC50 (LCLC-103H cell line; Homo sapiens, LCLC-103H): > 10 µM
- IC50 (LU-135): > 10 µM
- IC50 (MDA-MB-415; Homo sapiens, MDA-MB-415): > 10 µM
- IC50 (MKN-45; Homo sapiens, MKN-45): > 10 µM
- IC50 (NBsusSR): > 10 µM
- IC50 (NCI-H1048): > 10 µM
- IC50 (NCI-H1666): > 10 µM
- IC50 (NCI-H1975): > 10 µM
- IC50 (NCI-H2052; Homo sapiens, NCI-H2052): > 10 µM
- IC50 (NCI-H292; Homo sapiens, NCI-H292): > 10 µM
- IC50 (OAW-28; Homo sapiens, OAW-28): > 10 µM
- IC50 (OVCAR-3; Homo sapiens, OVCAR-3): > 10 µM
- IC50 (OVCAR-8; Homo sapiens, OVCAR-8): > 10 µM
- IC50 (RH-18): > 10 µM
- IC50 (SK-LU-1; Homo sapiens, SK-LU-1): > 10 µM
- IC50 (SW900): > 10 µM
- IC50 (639-V; Homo sapiens, 639-V): > 10 µM
- IC50 (647-V; Homo sapiens, 647-V): > 10 µM
- IC50 (8305C; Homo sapiens, 8305C): > 10 µM
- IC50 (BALL-1): > 10 µM
- IC50 (BFTC-905; Homo sapiens, BFTC-905): > 10 µM
- IC50 (BPH-1; Homo sapiens, BPH-1): > 10 µM
- IC50 (CAL-12T; Homo sapiens, CAL-12T): > 10 µM
- IC50 (CAL-27; Homo sapiens, CAL-27): > 10 µM
- IC50 (CAL-51; Homo sapiens, CAL-51): > 10000 nM
- IC50 (TGBC11TKB): > 10 µM
- IC50 (TI-73): > 10 µM
- IC50 (VM-CUB-1; Homo sapiens, VM-CUB-1): > 10 µM
- IC50 (COLO-680N; Homo sapiens, COLO-680N): > 10 µM

Compound: BLEOMYCIN
- IC50 (DV-90; dv-90): 182 µM
- IC50 (EFE-184; efe-184): 383 µM
- IC50 (EFO-27; efo-27): 0.571 µM
- IC50 (HCC1143; hcc1143): 27.2 µM
- IC50 (HCC1954; hcc1954): 84.2 µM
- IC50 (HuO-3N1; huo-3n1): 87.8 µM
- IC50 (IGR-1; igr-1): 2.35 µM
- IC50 (KARPAS-422; karpas-422): 168 µM
- IC50 (LCLC-103H cell line; lclc-103h): 0.144 µM
- IC50 (MDA-MB-415; mda-mb-415): 67.3 µM
- IC50 (MES-SA; mes-sa): 1.67 µM
- IC50 (MKN-45; mkn-45): 0.0248 µM
- IC50 (NCI-H1734; nci-h1734): 0.0174 µM
- IC50 (NCI-H2052; nci-h2052): 2.97 µM
- IC50 (NCI-H292; nci-h292): 0.803 µM
- IC50 (NCI-H838; nci-h838): 5.95 µM
- IC50 (OAW-28; oaw-28): 9.21 µM
- IC50 (OVCAR-3; ovcar-3): 123 µM
- IC50 (OVCAR-8; ovcar-8): 0.000476 µM
- IC50 (REH; reh): 0.0134 µM
- IC50 (SIMA; sima): 6.93 µM
- IC50 (SK-CO-1; sk-co-1): 0.247 µM
- IC50 (SK-LU-1; sk-lu-1): 0.999 µM
- IC50 (639-V; 639-v): 0.22 µM
- IC50 (647-V; 647-v): 1.73 µM
- IC50 (8305C; 8305c): 0.804 µM
- IC50 (BFTC-905; bftc-905): 2.32 µM
- IC50 (BPH-1; bph-1): 0.0591 µM
- IC50 (CA46; ca46): 84.8 µM
- IC50 (CAL-12T; cal-12t): 0.259 µM
- IC50 (CAL-27; cal-27): 8.07 µM
- IC50 (CAL-51; cal-51): 0.099 nM
- IC50 (VM-CUB-1; vm-cub-1): 4.92 µM
- IC50 (COLO 205; colo-205): 3.24 µM
- IC50 (COLO-680N; colo-680n): 5.76 µM
